Experiments:
[1] = Solubility of salicylic acid in organic compounds liquid at room temperature; format: physicochemical; settings: dissolved at 60° C., cooled to room temperature, left 2 hours
Procedure: In this example, the solubility of salicylic acid in different liquid materials was compared with mineral oil.
Preparation of Highly Concentrated Salicylic Acid Solutions
Salicylic acid was mixed with various organic compounds, liquid at room temperature, and heated to 60° C. The solution was stirred until all the salicylic acid was dissolved and then cooled to room temperature with stirring. The solution was left undisturbed for 2 hours and observed for crystallization.
The results are expressed by weight of the acid in the dissolving organic compound liquid at room temperature.

[2] = cited from earlier work

In the case of `O=C(O)c1ccccc1O` [Salicylic acid, 2-hydroxybenzoic acid], the “solubility of salicylic acid” value ([1]; in C12-C15 alkyl benzoate) was 4.8% w/w, the “solubility of salicylic acid” value ([1]; in glyceryl isostearate) was 8.25% w/w and the “solubility of salicylic acid” value ([1]; in isostearic acid) was 6.5% w/w. The “solubility of salicylic acid” value ([1]; in isostearyl alcohol) was 9.9% w/w, the “solubility of salicylic acid” value ([1]; in oleic acid, observed for crystallization, by weight of acid in the solvent) was 5.6% w/w and the “solubility of salicylic acid” value ([1]; in propylene glycol isostearate) was 9.9% w/w. The “volume of alcohol in which 1 g dissolves” value ([2]; ethanol, 1 g dissolves in the stated volume) was 2.7 mL, the “volume of ether in which 1 g dissolves” value ([2]; ether, 1 g in the stated volume) was 3 mL and the “volume of water in which 1 g dissolves” value ([2]; water, 1 g in the stated volume) was 460 mL.

— patent US20070243154A1, “Solubilization of acid ingredients” (L'OREAL, priority 2006, published 2007)
